These results are taken from US20250154266A1, “ACTIVIN SIGNALING ACTIVITY” (The Johns Hopkins University, priority 2022, published 2025).

Experiment [1] concerns Activin receptor-like kinase. To be noted: Table I, cited from earlier work; for Function: reported function in words; for Target: target profile in words.
For experiment [2], the system named is ALK1, ALK2, BMPR1A, ALK4, TGFBR1, BMPR1B, and ALK7. As to conditions: in words; cited from earlier work.
The subject of experiment [3] is ALK1, ALK2, ALK3 and ALK6. As to conditions: in words; cited from earlier work.
Experiment [4] deals with SMAD phosphorylation in CD4+ T cells. In words: Western blot analysis of SMAD phosphorylation in CD4+ T cells. The experiment is classed as cell-based. As for the experimental part:
Since Activins have been reported to promote SMAD signaling in non-T cells (14), it was tested whether Activins signaling in T cells could have a similar effect. SMAD activity was assessed by western blot analysis of SMAD phosphorylation.
Background: In western blotting, separated proteins are transferred to a membrane and probed.

Experiment [5] has as its system naive CD4+ T cells. In words: Foxp3 induction / Treg generation from naive CD4+ T cells. The experiment is classed as cell-based. As to conditions: for Foxp3 induction (Foxp3+ cells): single agent, TGF-β at suboptimal concentration, Activin A in the absence of TGF-β. The source says:
Since […] mediated events are important during the up-regulation of Foxp3 and the generation of Tregs from naive CD4+ T cell precursors, it was investigated whether Activin A can drive the process. Without TGF-β, as expected, Foxp3 induction was minimal.

Where [6] appears, read: single agent, Activin A 5 or 10 ng/ml, TGF-β 0.5 or 2 ng/ml.

`Cc1cccc(-c2nn3c(c2-c2ccnc4ccc(C(N)=O)cc24)CCC3)n1` (atropisomer, axis not shown) [LY-2157299]: in experiment [1], the Function entry is “LY-2157299 is now under phase II clinical studies of its anti- carcinoma activities against glioblastoma and hepatocellular carcinoma, and has also been reported that it inhibits the tumor growth in human lung anaplastic carcinoma cells and breast carcinoma cells”; the Target entry is given as “ALK4, 5, 7”.
`c1ccc(-c2nc3c(c(-n4ccc5cnccc54)n2)CCC3)nc1` [AZ12601011]: the targets entry in experiment [2] was “targets ALK4 and ALK7 as well as TGFBR1”.
With `Cc1cccc(-c2nn(C(=S)Nc3ccccc3)cc2-c2ccnc3ccccc23)n1` [Clone A-83-01, 3-(6-Methylpyridin-2-yl)-N-phenyl-4-(quinolin-4-yl)-1H-pyrazole-1-carbothioamide], the “inhibition of ALK1, ALK2, ALK3 and ALK6” value in experiment [3] is listed as “weak inhibitor”. In addition, in experiment [1], the Function result was “A-83-01 can inhibit the activities of ALK4, 5 and 7. For other ALK receptors such as ALK1, 2, 3 and 6, A-83-01 showed weak inhibition. A-83- 01 was proved to reduce EMT”; the Target entry is “Selective inhibitor for ALK4, 5 and 7, and weak effect on ALK1, 2, 3 and 6”.
With `c1ccc(-c2cc(-c3c[nH]nc3-c3ccccn3)ccn2)cc1` [GW-6604], in experiment [1], the Function result is “GW-6604 can prevent matrix deposition and promote hepatocyte regeneration as anti-cancer drug development”; the Target entry is recorded as “ALK4, 5, 7”.
As for `Cc1cccc(-c2[nH]c(C(C)(C)C)nc2-c2ccc3c(c2)OCO3)n1` [SB-505124], the Target result in experiment [1] is recorded as “ALK4, 5, 7”.
As for `Cc1cccc(-c2[nH]c(C(C)(C)C)nc2-c2ccc3nccnc3c2)n1` [SB-525334], in experiment [1], the Function entry is “SB-525334 has been demonstrated to block phosphorylation and Smad2/3 nuclear translocation, and inhibits renal fibrosis by reducing procollagen and PAI-1 expression”; the Target result is listed as “ALK4, 5, 7”.
Regarding `Fc1ccc(Cl)cc1-c1nc(Nc2ccncc2)c2nccnc2n1` [SD-208], in experiment [1], the Function entry was “SD-208 inhibits growth and invasiveness and enhances immunogenicity of murine and human glioma cells”; the Target result is listed as “ALK4, 5, 7”.
As for “TGF-β: cytokine, inducer of Foxp3 expression and SMAD signaling”, the “SMAD phosphorylation (phospho-SMAD)” value in experiment [4] (setting [6]) is “induced SMAD phosphorylation”. For the same molecule, the “Foxp3 induction (Foxp3+ cells)” value in experiment [5] is “modest up-regulation of Foxp3”.

B1: Activin A: dimeric member of the TGF-β Superfamily; two Activin βA subunits (protein, UniProt P08476 311-426, looked up)
Inhibin beta A chain: GLECDGKVNICCKKQFFVSFKDIGWNDWIIAPSGYHANYCEGECPSHIAGTSGSSLSFHSTVINHYRMRGHSPFANLKSCCVPTKLRPMSMLYYDDGQNIIKKDIQNMIVEECGCS
modifications: homodimer
In the case of B1, the “SMAD phosphorylation (phospho-SMAD)” value is “even further activation of the SMAD signaling pathway” in experiment [4] (combined Activin A and TGF-β treatment); “elevation of phospho-SMAD” in experiment [4] (setting [6]). For the same molecule, the “Foxp3+ T cell induction” value in experiment [5] (combined treatment with Activin and TGF-β) is “synergistic promotion of Foxp3+ T cell induction”. Also, in experiment [5], the “Foxp3 induction (Foxp3+ cells)” value is recorded as “comparable population of Foxp3+ cells”.
